This is an account of results in US11124540B2, “Polypeptides for the treatment of diseases” (Neopep Pharma GmbH & Co., KG, priority 2017, dated 2021).

This assay concerns Pancreas carcinoma cells. Kind of assay: Cancer cell invasion assay on humanized rats with implanted pancreas carcinoma cells. It is filed as in vivo. To be noted: for Tumor response, 2 w of therapy: after 2 weeks of therapy; for Tumor response, 2 w after end of therapy: 2 weeks after end of therapy; for Tumor response, 1 w of therapy: after 1 week of therapy. The protocol: The cancer cell invasion assay was performed on humanized rats (Eyol, E. et al., Oncology Reports, 28: 2177-2187, 2012). Pancreas carcinoma cells were implanted. The successful implant was observed by luminescent imaging as well as by an increase in CXCR4 expression.
After a successful implant of carcinoma cells, the rats were treated with a peptide according to Seq ID No. 1 and Seq. ID No. 9 respectively. The results after 1 week of therapy (1 w of therapy), after 2 weeks of therapy (2 w of therapy) and 2 weeks after end of therapy are depicted in the below tables.

In the case of “IVRWSKKVPQVS (human) [Seq ID No. 1, Ile Val Arg Trp Ser Lys Lys Val Pro Gln Val Ser]”, the “Tumor response, 2 w of therapy” value was “No tumor growth” (amount of peptide 7 mg), “Tumor growth” (amount of peptide 10 mg) and “Remission” (amount of peptide 70 mg). Also, the “Tumor response, 2 w after end of therapy” value is, setting by setting: (amount of peptide 10 mg) “Tumor growth”; (amount of peptide 20 mg) “Complete Remission”; (amount of peptide 70 mg) “Complete Remission”. Besides, the “Tumor response, 1 w of therapy” value reads like this: (amount of peptide 10 mg) “No tumor growth”; (amount of peptide 20 mg) “No tumor growth”; (amount of peptide 70 mg) “No tumor growth”.
Take “ILRWSRKMPQFS (human) [Seq ID No. 9, Ile Leu Arg Trp Ser Arg Lys Met Pro Gln Phe Ser]”: the “Tumor response, 2 w after end of therapy” value (amount of peptide 35 mg) is on record as “Tumor growth” and the “Tumor response, 2 w after end of therapy” value (amount of peptide 70 mg) is given as “Tumor growth”. Also, the “Tumor response, 1 w of therapy” value (amount of peptide 70 mg) was “Tumor growth”.
